In patent US11839215B2, “Uracil compound and harmful arthropod control composition containing same” (Sumitomo Chemical Company, Limited, priority 2018, dated 2023) one finds mortality of insects data, which are given here for two compounds.

This series concerns common cutworms (Spodoptera litura). Kind of series: Test Example 1: spray on cabbage seedling, mortality of common cutworm larvae. It counts as in vivo. To be noted: 500 ppm diluted solution sprayed on cabbage seedling 20 mL/seedling; five second instar larvae; 25° C., 5 days. As to the method: The compound A is made to a formulation according to a similar method to that described in the Formulation Example 5, and thereto is added water containing 0.03 v/v % of shindain (registered trademark) to prepare a diluted solution containing 500 ppm of the test compound.
The diluted solution was sprayed into the cabbage (Brassicae oleracea) seedling (on the developmental stage of the second to third true leaf) that is planted in a container in a ratio of 20 mL/seedling.
Thereafter, the stem and leaf thereof was cut out and then was installed into the container that was covered with the filter paper. Five common cutworms (Spodoptera litura) at the second instar larval stages were released into the container, and the container was allowed to stand at 25° C. for 5 days. […] Mortality (%)={1−Number of the surviving insects/5}×100

SMILES strings stand for the structures.

Turning to `CCOC(=O)COc1nc(C)cc(C)c1Oc1cc(-n2c(=O)cc(C(F)(F)F)n(C)c2=O)c(F)cc1Cl` [Compound A], the mortality of insects is 100%. As for `CCOC(=O)COc1ncccc1Oc1cc(-n2c(=O)cc(C(F)(F)F)n(C)c2=O)c(F)cc1Cl` [Compound B], the figure is 0%.
